We go through 19 compounds from US7501541B2, “Malonamides as orexin antagonists” (Hoffmann-La Roche Inc., priority 2007, dated 2009).

Assay [1] deals with T1, human orexin-2 (hOX2) receptors (Homo sapiens, UniProt O43614).
T1 construct: expressed in transfected cells
T1 sequence (O43614 1-444): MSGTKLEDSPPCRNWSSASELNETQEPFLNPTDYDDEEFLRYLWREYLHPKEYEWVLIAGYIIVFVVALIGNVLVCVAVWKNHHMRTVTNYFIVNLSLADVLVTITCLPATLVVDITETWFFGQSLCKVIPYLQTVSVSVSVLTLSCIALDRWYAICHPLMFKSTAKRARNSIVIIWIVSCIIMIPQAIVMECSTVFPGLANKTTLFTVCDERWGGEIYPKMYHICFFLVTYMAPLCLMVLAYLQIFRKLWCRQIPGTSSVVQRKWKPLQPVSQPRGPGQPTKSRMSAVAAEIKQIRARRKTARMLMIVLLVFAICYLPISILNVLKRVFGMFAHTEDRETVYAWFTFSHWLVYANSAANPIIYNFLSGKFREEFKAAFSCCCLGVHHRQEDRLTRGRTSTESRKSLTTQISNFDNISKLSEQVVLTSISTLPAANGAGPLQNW
The experiment in a line: Intracellular Ca2+ mobilization assay (FLIPR), CHO(dHFr-) cells expressing hOX2. The settings on record: antagonism of orexin-A at EC80; Kb=IC50/(1+[A]/EC50); CHO(dHFr-)-OX2R cells. The format is cell-based. As for the experimental part: (§1) Intracellular Ca^2+ Mobilization Assay
(§2) The Chinese Hamster Ovary (dHFr-) mutant cell line stably expressing human orexin-1 (hOX1) or human orexin-2 (hOX2) receptors were maintained in Dulbecco's Modified Eagle Medium (1X) with GlutaMax™ 1, 4500 mg/L D-Glucose and Sodium Pyruvate (Catalog No. 31966-021, Invitrogen, Carlsbad, Calif.), 5% dialyzed fetal calf serum (Catalog No. 26400-044), 100 μg/ml penicillin and 100 μg/ml streptomycin. The cells were seeded at 5×10^4 cells/well in the poly-D-lysine treated, 96-well, black/clear-bottomed plates (Catalog No. BD356640, BD Biosciences, Palo Alto, Calif.). 24 h later, the cells were loaded for 1 h at 37° C. with 4 μM Flou-4 acetoxymethyl ester (Catalog No. F-14202, Molecular Probes, Eugene, Oreg.) in FLIPR buffer (1×HBSS, 20 mM HEPES, 2.5 mM Probenecid). Hanks' Balanced Salt Solution (HBSS) (10×) (catalog No. 14065-049) and HEPES (1M) (catalog No. 15630-056) were purchased from Invitrogen, Carlsbad, Calif. Probenecid (250 mM) (catalog No. P8761) was from Sigma, Buchs, Switzerland. The cells were washed five times with FLIPR buffer to remove excess dye and intracellular calcium mobilization, [Ca^2+]i were measured using a Fluorometric Imaging Plate Reader (FLIPR-96, Molecular Devices, Menlo Park, Calif.) as described previously (Malherbe et al., Mol. Pharmacol., 64, 823-832, 2003). Orexin A (catalog No. 1455, Toris Cookson Ltd, Bristol, UK) was used as agonist. Orexin A ([…] stock solution in DMSO) was diluted in FLIPR buffer +0.1% BSA. The EC50 and EC80 values of orexin-A were measured daily from standard agonist concentration-response curves in CHO(dHFr-)-OX1R and -OX2R cell lines. All compounds were dissolved in 100% DMSO. Inhibition curves were determined by addition of 11 concentrations (0.0001-10 μM) of inhibitory compounds and using EC80 value of orexin-A as agonist (a concentration which gave 80% of max agonist response, determined daily). The antagonists were applied 25 min (incubation at 37° C.) before the application of the agonist. Responses were measured as peak increase in fluorescence minus basal, normalized to the maximal stimulatory effect induced by EC80 value of orexin-A or orexin-B. Inhibition curves were fitted according to the Hill equation: y=100/(1+(x/IC50)^nH), where nH=slope factor using Excel-fit 4 software (Microsoft). Kb values were calculated according to the following equation Kb=IC50/(1+[A]/EC50) where A is the concentration of agonist added which is very close to agonist EC80 value, and IC50 and EC50 values were derived from the antagonist inhibition and orexin-A or B agonist curves, respectively.
(In general: Calcium assays in cells follow changes in intracellular calcium, usually with a dye or a luminescent sensor.)

The target of assay [2] is T2, human orexin-1 (hOX1) receptors (Homo sapiens, UniProt O43613).
T2 construct: expressed in transfected cells
T2 sequence (O43613 1-425): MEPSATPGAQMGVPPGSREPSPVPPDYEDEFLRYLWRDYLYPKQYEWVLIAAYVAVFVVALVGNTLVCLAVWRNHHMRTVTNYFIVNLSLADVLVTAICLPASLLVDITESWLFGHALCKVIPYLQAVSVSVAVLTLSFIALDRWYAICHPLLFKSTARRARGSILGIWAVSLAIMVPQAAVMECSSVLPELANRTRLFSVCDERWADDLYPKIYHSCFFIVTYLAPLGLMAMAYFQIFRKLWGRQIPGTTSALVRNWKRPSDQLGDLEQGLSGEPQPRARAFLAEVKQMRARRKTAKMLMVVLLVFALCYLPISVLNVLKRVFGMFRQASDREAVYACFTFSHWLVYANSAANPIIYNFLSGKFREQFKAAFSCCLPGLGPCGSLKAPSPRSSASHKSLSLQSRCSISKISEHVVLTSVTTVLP
Put plainly: Intracellular Ca2+ mobilization assay (FLIPR), CHO(dHFr-) cells expressing hOX1. The settings on record: antagonism of orexin-A at EC80; Kb=IC50/(1+[A]/EC50); CHO(dHFr-)-OX1R cells. Format: cell-based. As for the experimental part: as §1, §2

Another assay relates to REM sleep. The settings on record: rat, icv administration (Piper et al., 2000); cited from earlier work.

No end group written: not given here.

As for `CNC(=O)C(C(=O)N(CCc1ccc(C(F)(F)F)cc1)c1ccc(OC)c(OC)c1)c1ccccc1` (stereo not drawn) [Example 1, N-(3,4-Dimethoxy-phenyl)-N′-methyl-2-phenyl-N-[2-(4-trifluoromethyl-phenyl)-ethyl]-malonamide], the Kb (as a rule, the equilibrium dissociation constant of an antagonist, usually derived from a functional assay) came out at 0.0255 µM in assay [1] and 0.16 µM in assay [2]. The corresponding values for `COc1ccc(N(CCc2ccc(C(F)(F)F)cc2)C(=O)C(C(N)=O)c2ccccc2)cc1OC` (stereo not drawn) [Example 2, N-(3,4-Dimethoxy-phenyl)-2-phenyl-N-[2-(4-trifluoromethyl-phenyl)-ethyl]-malonamide] are 0.0172 µM and 0.127 µM.

In the case of `CCCCNC(=O)C(C(=O)N(CCc1ccc(C(F)(F)F)cc1)c1ccc(OC)c(OC)c1)c1ccccc1` (stereo not drawn) [Example 3, N-Butyl-N′-(3,4-dimethoxy-phenyl)-2-phenyl-N′-[2-(4-trifluoromethyl-phenyl)-ethyl]-malonamide], the Kb in assay [1] worked out at 0.0419 µM. In other words, the double-digit nanomolar range. Turning to `COCCNC(=O)C(C(=O)N(CCc1ccc(C(F)(F)F)cc1)c1ccc(OC)c(OC)c1)c1ccccc1` (stereo not drawn) [Example 5, N-(3,4-Dimethoxy-phenyl)-N′-[2-methoxy-ethyl)-2-phenyl-N-[2-(4-trifluoromethyl-phenyl)-ethyl]-malonamide], the Kb turned out to be 0.0217 µM in assay [1] and 0.229 µM in assay [2].

As to `COc1ccc(N(CCc2ccc(C(F)(F)F)cc2)C(=O)C(C(=O)NCc2ccc(C)cc2)c2ccccc2)cc1OC` (stereo not drawn) [Example 13, N-(3,4-Dimethoxy-phenyl)-N′-(4-methyl-benzyl)-2-phenyl-N-[2-(4-trifluoromethyl-phenyl)-ethyl]-malonamide], the Kb in assay [1] amounted to 0.0968 µM; in assay [2], 0.218 µM. In the case of `COc1ccc(N(CCc2ccc(C(F)(F)F)cc2)C(=O)C(C(=O)N(C)CCc2ccccc2)c2ccccc2)cc1OC` (stereo not drawn) [Example 14, N-(3,4-Dimethoxy-phenyl)-N′-methyl-N′-phenethyl-2-phenyl-N-[2-(4-trifluoromethyl-phenyl)-ethyl]-malonamide], the Kb in assay [1] was 0.0141 µM; in assay [2] it was 0.234 µM. Turning to `COc1ccc(N(CCc2ccc(C(F)(F)F)cc2)C(=O)C(C(=O)N(C)Cc2ccccc2)c2ccccc2)cc1OC` (stereo not drawn) [Example 15, N-Benzyl-N′-(3,4dimethoxy-phenyl)-N-methyl-2-phenyl-N′-[2-(4-trifluoromethyl-phenyl)-ethyl]-malonamide], the Kb in assay [1] was found to be 0.0428 µM; in assay [2], 0.166 µM. The corresponding values for `COc1ccc(N(CCc2ccc(C(F)(F)F)cc2)C(=O)C(C(=O)Nc2ccc(F)cc2)c2ccccc2)cc1OC` (stereo not drawn) [Example 16, N-(3,4-Dimethoxy-phenyl)-N′-(4-fluoro-phenyl)-2-phenyl-N-[2-(4-trifluoromethyl-phenyl)-ethyl]-malonamide] are 0.0817 µM and 0.252 µM. Take `CCNC(=O)C(C(=O)N(CCc1ccc(C(F)(F)F)cc1)c1ccc(OC)c(OC)c1)c1ccccc1` (stereo not drawn) [Example 17, N-(3,4-Dimethoxy-phenyl)-N′-ethyl-2-phenyl-N-[2-(4-trifluoromethyl-phenyl)-ethyl]-malonamide]: the antagonist equilibrium constant (Kb) stood at 0.0299 µM in assay [1] and 0.191 µM in assay [2].

Consider `COc1ccc(N(CCc2ccc(C(F)(F)F)cc2)C(=O)C(C(=O)NC2CC2)c2ccccc2)cc1OC` (stereo not drawn) [Example 18, N-Cyclopropyl-N′-(3,4-dimethoxy-phenyl)-2-phenyl-N′-[2-(4-trifluoromethyl-phenyl)-ethyl]-malonamide], for which the values for the Kb in assay [1] and in assay [2] were 0.0197 µM and 0.199 µM, respectively. The like results for `CCCNC(=O)C(C(=O)N(CCc1ccc(C(F)(F)F)cc1)c1ccc(OC)c(OC)c1)c1ccccc1` (stereo not drawn) [Example 19, N-(3,4-Dimethoxy-phenyl)-2-phenyl-N′-propyl-N-[2-(4-trifluoromethyl-phenyl)-ethyl]-malonamide] were, in that order, 0.0523 µM and 0.245 µM. The like results for `COc1ccc(N(CCc2ccc(C(F)(F)F)cc2)C(=O)C(C(=O)NCC2CC2)c2ccccc2)cc1OC` (stereo not drawn) [Example 20, N-Cyclopropylmethyl-N′-(3,4-dimethoxy-phenyl)-2-phenyl-N′-[2-(4-trifluoromethyl-phenyl)-ethyl]-malonamide] were, in that order, 0.0468 µM and 0.292 µM. The like results for `COc1ccc(N(CCc2ccc(C(F)(F)F)cc2)C(=O)C(C(=O)NCC(F)F)c2ccccc2)cc1OC` (stereo not drawn) [Example 21, N-(2,2-Difluoro-ethyl)-N′-(3,4-diemthoxy-phenyl)-2-phenyl-N′-[2-(4-trifluoromethyl-phenyl)-ethyl]-malonamide] were, in that order, 0.0278 µM and 0.173 µM. Regarding `COc1ccc(N(CCc2ccc(C(F)(F)F)cc2)C(=O)C(C(=O)Nc2cccnc2)c2ccccc2)cc1OC` (stereo not drawn) [Example 22, N-(3,4-Dimethoxy-phenyl)-2-phenyl-N′-pyridin-3-yl-N-[2-(4-trifluoromethyl-phenyl)-ethyl]-malonamide], the Kb in assay [1] came to 0.0838 µM; in assay [2] it was 0.439 µM. Turning to `COc1ccc(N(CCc2ccc(C(F)(F)F)cc2)C(=O)C(C(=O)NC2CCOCC2)c2ccccc2)cc1OC` (stereo not drawn) [Example 23, N-(3,4-Dimethoxy-phenyl)-2-phenyl-N′-(tetrahydro-pyran-4-yl)-N-[2-(4-trifluoromethyl-phenyl)-ethyl]-malonamide], the Kb came to 0.023 µM in assay [1] and 0.238 µM in assay [2]. In the case of `COc1ccc(N(CCc2ccc(C(F)(F)F)cc2)C(=O)C(C(=O)NCc2cccnc2)c2ccccc2)cc1OC` (stereo not drawn) [Example 24, N-(3,4-Dimethoxy-phenyl)-2-phenyl-N′-pyridin-3-ylmethyl-N-[2-(4-trifluoromethyl-phenyl)-ethyl]-malonamide], the Kb in assay [1] and in assay [2] was 0.245 µM each time. As to `COc1cc(N(CCc2ccc(C(F)(F)F)cc2)C(=O)C(C(=O)N(C)C)c2ccccc2)ccc1Cl` (stereo not drawn) [Example 56, N-(4-Chloro-3-methoxy-phenyl)-N′,N′-dimethyl-2-phenyl-N-[2-(4-trifluoromethyl-phenyl)-ethyl]-malonamide], the values for the Kb in assay [1] and in assay [2] were 0.055 µM and 0.295 µM, respectively. For `COc1ccc(N(CCc2ccc(C(F)(F)F)cc2)C(=O)C(C(=O)N(C)C)c2ccccc2)cc1Cl` (stereo not drawn) [Example 58, N-(3-Chloro-4-methoxy-phenyl)-N′,N′-dimethyl-2-phenyl-N-[2-(4-trifluoromethyl-phenyl)-ethyl]-malonamide], the results for the antagonist equilibrium constant (Kb) in assay [1] and in assay [2] were 0.0572 µM and 0.723 µM, respectively. As to “OX-A: orexin-A/hypocretin1, hypothalamic neuropeptide of 33 amino acids, agonist of OX1R and OX2R (QPLPDCCRQKTCSCRLYELLHGAGNHAAGILTL; ends and bridges not checked; cysteine pairing not given here; UniProt O43612 34-66, looked up)”, the “reduces total REM sleep” value in the assay on REM sleep is recorded as 84%.
